Test results published in patent publication US9850283B2, “Macrocyclic inhibitors of the PD-1/PD-L1 and CD80(B7-1)/PD-L1 protein/protein interactions” (BRISTOL-MYERS SQUIBB COMPANY, priority 2013, dated 2017).
Starred links: 1 amine or outer side, 2 acyl side, 3 side chain; linkers in the order of their positions; H or OH if unused. Positions of bridges follow the written chain, without caps; N, C: chain ends. Non-standard residues stand in square brackets, D forms with d. Residues, ends and D or L forms follow the SMILES beside them. ξ: configuration not given here. X17 = O=C([C@@H]1C[C@@H](c2nn[nH]n2)CN1[*:1])[*:2]; Pro(4R-Bn) = O=C(O)[C@@H]1C[C@@H](Cc2ccccc2)CN1; Pro(trans-4-F) = O=C(O)[C@@H]1C[C@@H](F)CN1; Bta = N[C@@H](Cc1csc2ccccc12)C(=O)O; Hyp = O=C(O)[C@@H]1C[C@@H](O)CN1; NMeNle = CCCC[C@H](NC)C(=O)O; NMeM = CN[C@@H](CCSC)C(=O)O; NMeA = CN[C@@H](C)C(=O)O; Orn = NCCC[C@H](N)C(=O)O; Dab = NCC[C@H](N)C(=O)O; Dap = NC[C@H](N)C(=O)O; ξC = NC(CS)C(=O)O; Sar = CNCC(=O)O

Legend:
[1] = molecular target: T1, Human PD-L1/PD-1 (Homo sapiens, UniProt Q9NZQ7); test: HTRF PD-1-Ig/PD-L1-His binding assay (human PD-L1); details: cluster symbol; read-out: HTRF IC50 cluster
T1 construct: made in house; host or cells: HEK293T
Method in brief: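 Interaction of Fc-tagged soluble PD-1 with His-tagged soluble PD-L1 is monitored by time-resolved FRET. Donor is europium cryptate anti-Ig (1 nM final) and acceptor is APC anti-His (20 nM final). Assay buffer is dPBS with 0.1% BSA and 0.05% Tween-20.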

[2] = molecular target: T2, LK35.2-hPD-L1 cells / PE-labeled PD-1-Ig (Homo sapiens, UniProt Q9NZQ7); test: LK35.2-hPD-L1 cell binding high-content screening assay; format: cell-based; details: cell binding assay, cell line not given; cluster symbol; read-out: CBA IC50 cluster
T2 construct: expressed in transfected cells; host or cells: LK35.2 mouse B cell line
Method in brief: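 Readout: high-content imaging of PE-PD-1-Ig bound to LK35.2-hPD-L1 cells. Cells plated overnight (RPMI/10% FCS); compound + 1 nM PE-PD-1-Ig, 1 h, 37 °C; 3× dPBS wash before imaging.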

T1 sequence (Q9NZQ7 with tags, fused parts or gaps): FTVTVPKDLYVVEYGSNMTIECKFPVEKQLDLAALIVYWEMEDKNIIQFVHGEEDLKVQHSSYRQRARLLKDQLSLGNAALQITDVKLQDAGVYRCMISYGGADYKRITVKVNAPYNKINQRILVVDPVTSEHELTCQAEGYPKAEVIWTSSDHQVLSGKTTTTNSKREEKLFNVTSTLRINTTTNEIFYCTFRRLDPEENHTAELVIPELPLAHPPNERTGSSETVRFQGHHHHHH
T2 sequence (Q9NZQ7 19-290): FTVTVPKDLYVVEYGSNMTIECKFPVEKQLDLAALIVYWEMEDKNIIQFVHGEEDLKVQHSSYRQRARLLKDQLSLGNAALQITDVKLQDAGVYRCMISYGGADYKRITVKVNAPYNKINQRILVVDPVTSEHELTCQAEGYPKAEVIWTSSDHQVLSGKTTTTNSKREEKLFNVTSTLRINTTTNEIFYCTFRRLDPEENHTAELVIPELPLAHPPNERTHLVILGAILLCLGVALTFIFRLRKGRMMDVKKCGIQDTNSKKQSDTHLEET

Row | IC50 [1] [nM] | IC50 [2] [nM] | Structure (SMILES)
1 | 0.385 to 6.74 | 4.78 to 72.9 | CCCC[C@H]1C(=O)N[C@@H](CCCNC(=N)N)C(=O)NC(C(=O)NCC(N)=O)CSCC(=O)N[C@@H](Cc2ccc(O)cc2)C(=O)N(C)[C@@H](C)C(=O)N[C@@H](CC(N)=O)C(=O)N2CCC[C@H]2C(=O)N[C@@H](Cc2cnc[nH]2)C(=O)N[C@@H](CO)C(=O)N2CCC[C@H]2C(=O)N[C@@H](Cc2c[nH]c3ccccc23)C(=O)N[C@@H](CO)C(=O)N[C@@H](Cc2csc3ccccc23)C(=O)N(C)[C@@H](CCSC)C(=O)N1C (stereo partly shown) [Example 9112] ({CH2CO}-Y[NMeA]NPHSPWS[Bta][NMeM][NMeNle]R[ξC]G-NH2; thioether N-14)
2 | 6.76 to 30.3 | 4.78 to 72.9 | CCCC[C@H]1C(=O)N[C@@H](CCCNC(=N)N)C(=O)NC(C(=O)NCC(N)=O)CSCC(=O)N[C@@H](Cc2ccc(O)cc2)C(=O)N(C)[C@@H](C)C(=O)N[C@@H](CC(N)=O)C(=O)N2CCC[C@H]2C(=O)N[C@@H](Cc2cnc[nH]2)C(=O)N[C@@H](CO)C(=O)N2C[C@H](O)C[C@H]2C(=O)N[C@@H](Cc2c[nH]c3ccccc23)C(=O)N[C@@H](CO)C(=O)N[C@@H](Cc2c[nH]c3ccccc23)C(=O)N(C)[C@@H](CCSC)C(=O)N1C (stereo partly shown) [Example 9113] ({CH2CO}-Y[NMeA]NPHS[Hyp]WSW[NMeM][NMeNle]R[ξC]G-NH2; thioether N-14)
3 | 6.76 to 30.3 | 4.78 to 72.9 | CCCC[C@H]1C(=O)N[C@@H](CCCNC(=N)N)C(=O)NC(C(=O)NCC(N)=O)CSCC(=O)N[C@@H](Cc2ccc(O)cc2)C(=O)N(C)[C@@H](C)C(=O)N[C@@H](CC(N)=O)C(=O)N2CCC[C@H]2C(=O)N[C@@H](Cc2cnc[nH]2)C(=O)N[C@@H](CO)C(=O)N2C[C@H](O)C[C@H]2C(=O)N[C@@H](Cc2c[nH]c3ccccc23)C(=O)N[C@@H](CO)C(=O)N[C@@H](Cc2csc3ccccc23)C(=O)N(C)[C@@H](CCSC)C(=O)N1C (stereo partly shown) [Example 9114] ({CH2CO}-Y[NMeA]NPHS[Hyp]WS[Bta][NMeM][NMeNle]R[ξC]G-NH2; thioether N-14)
4 | 6.76 to 30.3 | > 74.3 | CCCC[C@H]1C(=O)N(C)[C@@H](CCCC)C(=O)N[C@@H](CO)C(=O)N[C@H](C(=O)NCC(N)=O)CSCC(=O)N[C@@H](Cc2ccccc2)C(=O)N(C)[C@@H](C)C(=O)N[C@@H](CC(N)=O)C(=O)N2CCC[C@H]2C(=O)N[C@@H](Cc2cnc[nH]2)C(=O)N[C@@H](CC(C)C)C(=O)N(C)CC(=O)N[C@@H](Cc2c[nH]c3ccccc23)C(=O)N[C@@H](CO)C(=O)N[C@@H](Cc2c[nH]c3ccccc23)C(=O)N1C [Example 10001] ({CH2CO}-F[NMeA]NPHL[Sar]WSW[NMeNle][NMeNle]SCG-NH2; thioether N-14)
5 | > 30.5 | > 74.3 | CCCC[C@H]1C(=O)N(C)[C@@H](CCCC)C(=O)N[C@@H](CCCNC(=N)N)C(=O)NC(C(=O)NCC(N)=O)CSCC(=O)N[C@@H](Cc2ccc(O)cc2)C(=O)N(C)[C@@H](C)C(=O)N[C@@H](CC(N)=O)C(=O)N2CCC[C@H]2C(=O)N[C@@H](Cc2c[nH]cn2)C(=O)NCC(=O)N[C@@H](CC(C)C)C(=O)N2CCC[C@H]2C(=O)N[C@@H](Cc2c[nH]c3ccccc23)C(=O)N[C@@H](CO)C(=O)N[C@@H](Cc2c[nH]c3ccccc23)C(=O)N1C (stereo partly shown) [Example 10516] ({CH2CO}-Y[NMeA]NPHGLPWSW[NMeNle][NMeNle]R[ξC]G-NH2; thioether N-15)
6 | > 30.5 | > 74.3 | CCCC[C@H]1C(=O)N(C)[C@@H](CCCC)C(=O)N[C@@H](CCCNC(=N)N)C(=O)NC(C(=O)NCC(N)=O)CSCC(=O)N[C@@H](Cc2ccc(O)cc2)C(=O)N(C)[C@@H](C)C(=O)N[C@@H](CC(N)=O)C(=O)N2CCC[C@H]2C(=O)N[C@@H](Cc2c[nH]cn2)C(=O)N[C@@H](C)C(=O)N[C@@H](CC(C)C)C(=O)N2CCC[C@H]2C(=O)N[C@@H](Cc2c[nH]c3ccccc23)C(=O)N[C@@H](CO)C(=O)N[C@@H](Cc2c[nH]c3ccccc23)C(=O)N1C (stereo partly shown) [Example 10517] ({CH2CO}-Y[NMeA]NPHALPWSW[NMeNle][NMeNle]R[ξC]G-NH2; thioether N-15)
7 | 0.385 to 6.74 | 0.158 to 4.71 | CCCC[C@H]1C(=O)N(C)[C@@H](CCCC)C(=O)N[C@@H](CCN)C(=O)N[C@H](C(=O)NCC(N)=O)CSCC(=O)N[C@@H](Cc2ccc(O)cc2)C(=O)N(C)[C@@H](C)C(=O)N[C@@H](CC(N)=O)C(=O)N2CCC[C@H]2C(=O)N[C@@H](Cc2c[nH]cn2)C(=O)N[C@@H](CCC(=O)O)C(=O)N2C[C@H](F)C[C@H]2C(=O)N[C@@H](Cc2c[nH]c3ccccc23)C(=O)N[C@@H](CCN)C(=O)N[C@@H](Cc2c[nH]c3ccccc23)C(=O)N1C [Example 13001] ({CH2CO}-Y[NMeA]NPHE[Pro(trans-4-F)]W[Dab]W[NMeNle][NMeNle][Dab]CG-NH2; thioether N-14)
8 | 0.385 to 6.74 | 0.158 to 4.71 | CCCC[C@H]1C(=O)N(C)[C@@H](CCCC)C(=O)N[C@@H](C)C(=O)N[C@H](C(=O)NCC(N)=O)CSCC(=O)N[C@@H](Cc2ccc(O)cc2)C(=O)N(C)[C@@H](C)C(=O)N[C@@H](CC(=O)O)C(=O)N2CCC[C@H]2C(=O)N[C@@H](Cc2c[nH]cn2)C(=O)N[C@@H](CCC(=O)O)C(=O)N2C[C@H](F)C[C@H]2C(=O)N[C@@H](Cc2c[nH]c3ccccc23)C(=O)N[C@@H](CCN)C(=O)N[C@@H](Cc2c[nH]c3ccccc23)C(=O)N1C [Example 13002] ({CH2CO}-Y[NMeA]DPHE[Pro(trans-4-F)]W[Dab]W[NMeNle][NMeNle]ACG-NH2; thioether N-14)
9 | 0.385 to 6.74 | 0.158 to 4.71 | CCCC[C@H]1C(=O)N(C)[C@@H](CCCC)C(=O)N[C@@H](CCCN)C(=O)N[C@H](C(=O)NCC(N)=O)CSCC(=O)N[C@@H](Cc2ccc(O)cc2)C(=O)N(C)[C@@H](C)C(=O)N[C@@H](CC(N)=O)C(=O)N2CCC[C@H]2C(=O)N[C@@H](CN)C(=O)N[C@@H](CC(C)C)C(=O)N2C[C@H](F)C[C@H]2C(=O)N[C@@H](Cc2c[nH]c3ccccc23)C(=O)N[C@@H](CO)C(=O)N[C@@H](Cc2c[nH]c3ccccc23)C(=O)N1C [Example 13003] ({CH2CO}-Y[NMeA]NP[Dap]L[Pro(trans-4-F)]WSW[NMeNle][NMeNle][Orn]CG-NH2; thioether N-14)
10 | 0.385 to 6.74 | 0.158 to 4.71 | CCCC[C@H]1C(=O)N(C)[C@@H](CCCC)C(=O)N[C@@H](CCN)C(=O)N[C@H](C(=O)NCC(N)=O)CSCC(=O)N[C@@H](Cc2ccc(O)cc2)C(=O)N(C)[C@@H](C)C(=O)N[C@@H](CC(N)=O)C(=O)N2CCC[C@H]2C(=O)N[C@@H](Cc2c[nH]cn2)C(=O)N[C@@H](CCC(=O)O)C(=O)N2C[C@H](c3nn[nH]n3)C[C@H]2C(=O)N[C@@H](Cc2c[nH]c3ccccc23)C(=O)N[C@@H](CCN)C(=O)N[C@@H](Cc2c[nH]c3ccccc23)C(=O)N1C [Example 13004] ({CH2CO}-Y[NMeA]NPHE[X17]W[Dab]W[NMeNle][NMeNle][Dab]CG-NH2; thioether N-14)
11 | 0.385 to 6.74 | 0.158 to 4.71 | CCCC[C@H]1C(=O)N(C)[C@@H](CCCC)C(=O)N[C@@H](CCN)C(=O)N[C@H](C(=O)NCC(N)=O)CSCC(=O)N[C@@H](Cc2ccc(O)cc2)C(=O)N(C)[C@@H](C)C(=O)N[C@@H](CC(N)=O)C(=O)N2CCC[C@H]2C(=O)N[C@@H](Cc2c[nH]cn2)C(=O)N[C@@H](CCC(=O)O)C(=O)N2C[C@H](Cc3ccccc3)C[C@H]2C(=O)N[C@@H](Cc2c[nH]c3ccccc23)C(=O)N[C@@H](CCN)C(=O)N[C@@H](Cc2c[nH]c3ccccc23)C(=O)N1C [Example 13007] ({CH2CO}-Y[NMeA]NPHE[Pro(4R-Bn)]W[Dab]W[NMeNle][NMeNle][Dab]CG-NH2; thioether N-14)
